This is an account of results in patent publication US10966994B2, “Thromboxane receptor antagonists” (ATXA THERAPEUTICS LIMITED, priority 2015, dated 2021).

Common to all, as to format: cell-based
Assay [1] deals with T1, TPβ (Homo sapiens, UniProt P21731).
T1 construct: expressed in transfected cells; host or cells: HEK 293 (HEK.TPβ, isolate EM #8)
Nature of the assay: U46619-mediated calcium mobilization in HEK.TPβ cells. Conditions: for IC50: 1 μM U46619, estimated IC50, mean ± S.E.M., read-out: IC50 values for Inhibition of U46619-Mediated [Ca2+]i Mobilisation, TPβ; for inhibition of U46619-mediated calcium mobilization, TPβ (in words): 1 μM U46619. How it is done: NTP42-NTP49, northern group variants of NTP4, were assessed through calcium mobilization assays using proprietary HEK 293 cells over-expressing the thromboxane (TX)A2 receptor, α (TPα) and β (TPβ) isoforms, referred to as HEK.TPα and HEK.TPβ cells, respectively. The initial screening involved dose-responses assays (concentrations used 0.0001 (TPβ only), 0.001, 0.1, 1 & 10 μM; (TPα and TPβ)) followed by more focused, full dose response assays (concentration range: 0.00001 to 10 μM) for determination of IC50 values where the effect of the compounds on calcium mobilized in response to the TXA2 mimetic U46619 (1 μM) were performed in side-by-side comparison with the key lead compounds TP20 and NTP4.
As stated, NTP42-NTP49 were screened through calcium mobilization assays using HEK.TPα and HEK.TPβ cells over-expressing the thromboxane (TX)A2 receptor, α (TPα) and β (TPβ) isoforms, respectively. The initial screening involved dose-response assays where the compounds, used at 0.0001 (TPβ only), 0.001, 0.1, 1 & 10 μM (TPα and TPβ), were assessed for their ability to inhibit the TXA2 mimetic U46619 (1 μM). The compounds were tested in side-by-side assays with the previously identified key lead compounds TP20 and NTP4.
HEK.TPβ (EM #8) cells, preloaded with Fluo-4, were incubated with the TP20, NTP4, NTP42, NTP43, NTP44, NTP45, NTP47, NTP48 & NTP49 where each antagonist was used at 0.0001, 0.001, 0.1, 1 & to 10 μM, as indicated, prior to stimulation with 1 μM U46619. Data is presented as the mean (±S.E.M.) percentage of the agonist-induced response in vehicle-treated cells (Percentage of Control; %) and represents data from at least 4 independent experiments were cells were treated in duplicate.
HEK.TPβ (EM #8) cells, preloaded with Fluo-4, were incubated with the TP20, NTP4, NTP42, NTP43 and NTP48 where each antagonist was used at 0.00001-10 μM, as indicated, prior to stimulation with 1 μM U46619. Data is presented as the mean (±S.E.M.) percentage of the agonist-induced response in vehicle-treated cells (Percentage of Control; %) and represents data from at least 4 independent experiments were cells were treated in duplicate.

The target of assay [2] is T2, TPα (Homo sapiens, UniProt P21731).
T2 construct: expressed in transfected cells; host or cells: HEK 293 (HEK.TPα, isolate HR #4)
T2 sequence (P21731 1-343): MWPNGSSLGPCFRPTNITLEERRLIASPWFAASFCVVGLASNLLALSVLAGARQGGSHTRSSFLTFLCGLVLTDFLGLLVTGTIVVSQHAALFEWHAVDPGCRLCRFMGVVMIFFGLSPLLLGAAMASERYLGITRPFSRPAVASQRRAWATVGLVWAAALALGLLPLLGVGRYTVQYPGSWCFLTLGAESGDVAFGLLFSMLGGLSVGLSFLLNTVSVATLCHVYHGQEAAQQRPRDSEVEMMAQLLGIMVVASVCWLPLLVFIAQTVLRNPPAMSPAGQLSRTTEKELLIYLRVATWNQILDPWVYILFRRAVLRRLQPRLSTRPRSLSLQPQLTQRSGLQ
Nature of the assay: 8-iso-PGF2α-mediated calcium mobilization in HEK.TPα cells. Conditions: 10 μM 8-iso-PGF2α, estimated IC50, read-out: IC50 values for inhibition of 8-iso-PGF2α-mediated [Ca2+]i mobilization, TPα. The source says:
Effect of NTP42-NTP48 on 8-iso-PGF2α-mediated Calcium Mobilization In addition, to assessment of the compounds to antagonise U46619-mediated responses, the ability of NTP42 & NTP43 to inhibit the partial TP agonist 8-iso-PGF2α has been examined through calcium mobilization assays in HEK.TPα and HEK.TPβ cells.
Data is presented as the mean (±S.E.M.) percentage of the agonist-induced response in vehicle-treated cells (Percentage of Control; %) and represents data from at least 3 independent experiments were cells were treated in duplicate, except NTP48.

In assay [3] the target is T3, DP1 receptor (Homo sapiens, UniProt Q13258).
T3 sequence (Q13258 1-359): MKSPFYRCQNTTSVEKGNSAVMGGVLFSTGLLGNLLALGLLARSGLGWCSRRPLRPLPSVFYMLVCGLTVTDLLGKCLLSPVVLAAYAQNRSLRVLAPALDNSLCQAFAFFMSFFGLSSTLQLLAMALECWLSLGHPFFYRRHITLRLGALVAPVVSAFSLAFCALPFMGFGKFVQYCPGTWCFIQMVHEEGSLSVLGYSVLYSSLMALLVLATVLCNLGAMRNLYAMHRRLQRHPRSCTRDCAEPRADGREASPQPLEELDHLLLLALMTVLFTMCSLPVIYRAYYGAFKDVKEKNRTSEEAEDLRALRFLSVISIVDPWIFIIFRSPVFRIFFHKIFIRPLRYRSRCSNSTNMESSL
Nature of the assay: Specificity testing, DP1 receptor signaling. How it is done:
(§1) There is no or minimal inhibition of the majority of the non-TP-mediated signaling observed in the presence of either NTP42 & NTP48. Where there is inhibition of signaling, it is observed at the 10 μM concentration only. […] Compared to NTP42, NTP48 has less of an effect on the signaling of the non-TP prostanoid receptors and therefore, may be considered more favorable in this context.

Assay [4] addresses IP receptor (Homo sapiens, UniProt P43119). Nature of the assay: Specificity testing, IP receptor signaling. How it is done:
as §1

Setting [5] is: maximal inhibition, at 10 μM only.

T1 sequence (P21731 1-407 isoform P21731-2): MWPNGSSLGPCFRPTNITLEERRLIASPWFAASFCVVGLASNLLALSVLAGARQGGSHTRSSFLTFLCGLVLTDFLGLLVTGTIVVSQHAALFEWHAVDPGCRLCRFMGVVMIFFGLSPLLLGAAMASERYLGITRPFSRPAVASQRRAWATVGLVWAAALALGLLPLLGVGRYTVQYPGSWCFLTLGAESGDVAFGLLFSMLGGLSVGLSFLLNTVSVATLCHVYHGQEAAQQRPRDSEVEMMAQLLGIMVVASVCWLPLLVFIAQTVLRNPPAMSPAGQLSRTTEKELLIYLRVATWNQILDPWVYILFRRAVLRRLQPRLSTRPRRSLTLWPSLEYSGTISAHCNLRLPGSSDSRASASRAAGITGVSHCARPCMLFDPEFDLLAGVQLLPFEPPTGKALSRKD
IP receptor, sequence (P43119 whole entry): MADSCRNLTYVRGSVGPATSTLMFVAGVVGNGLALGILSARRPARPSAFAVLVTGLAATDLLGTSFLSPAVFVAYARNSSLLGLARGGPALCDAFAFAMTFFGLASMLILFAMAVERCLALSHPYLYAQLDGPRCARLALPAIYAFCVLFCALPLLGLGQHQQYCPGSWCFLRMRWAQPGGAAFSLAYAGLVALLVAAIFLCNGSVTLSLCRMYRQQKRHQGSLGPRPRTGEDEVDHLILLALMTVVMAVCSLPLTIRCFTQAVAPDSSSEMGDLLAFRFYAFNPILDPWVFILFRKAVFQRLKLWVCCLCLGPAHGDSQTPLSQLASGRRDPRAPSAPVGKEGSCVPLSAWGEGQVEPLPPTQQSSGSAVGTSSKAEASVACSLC

The IC50 is the point on the concentration scale where inhibition reaches its midpoint. With `CC(C)(C)NC(=O)NS(=O)(=O)c1cc(C#N)ccc1Oc1cccc(-c2ccc(OC(F)F)cc2)c1` [NTP42], the IC50 in assay [1] is 8.25 ± 0.73 nM; in assay [2], 12.8 ± 1.42 nM. Further, the “effect on the DP1 receptor (DP-mediated signaling)” value (shortened to “effect on the DP1 receptor”) in assay [3] is listed as “no effect”. Besides, the “percentage reduction in responses, DP1” value in assay [3] (setting [5]) is < 30%. The “effect on the IP receptor” value in assay [4] is “no effect”. Further, the “percentage reduction in responses, IP” value in assay [4] (setting [5]) worked out at 50%.
In the case of `COc1ccc(-c2cccc(Oc3ccc([N+](=O)[O-])cc3S(=O)(=O)NC(=O)NC(C)(C)C)c2)cc1` [TP20, reference compound], the “inhibition of U46619-mediated calcium mobilization, TPβ (in words)” value in assay [1] is reported as “potently inhibited”. Also, the IC50 in assay [2] is 46.4 ± 4.24 nM. Moreover, in assay [3], the “effect on the DP1 receptor” value was “like TP20 and NTP4, neither NTP42, NTP43 nor NTP48 exhibited any effect”. Besides, in assay [4], the “effect on the IP receptor” value was “like TP20 and NTP4, neither NTP42, NTP43 nor NTP48 exhibited any effect”.
Regarding `CC(C)(C)NC(=O)NS(=O)(=O)c1cc(C#N)ccc1Oc1cccc(-c2ccc(OC(F)(F)F)cc2)c1` [NTP43], the figures for the IC50 in assay [1] and in assay [2] were 18.4 ± 1.63 nM and 30.7 ± 5.05 nM, respectively. For the same compound, the “effect on the DP1 receptor” value in assay [3] was “not to exhibit any effect”. In assay [4], the “effect on the IP receptor” value is on record as “not to exhibit any effect”.
As to `CN(C)C(=O)c1ccc(-c2cccc(Oc3ccc(C#N)cc3S(=O)(=O)NC(=O)NC(C)(C)C)c2)cc1` [NTP48, 4-[3-[2-(tert-Butylcarbamoylsulfamoyl)-4-cyano-phenoxy]phenyl]-N,N-dimethyl-benzamide], the IC50 is 5.06 ± 1.5 nM in assay [1] and 29.3 ± 3.87 nM in assay [2]. Further, the “effect on the DP1 receptor” value in assay [3] was “no effect”. Moreover, the “effect on the IP receptor” value in assay [4] is “no effect”.
As for `COc1ccc(-c2cccc(Oc3ccc(C#N)cc3S(=O)(=O)NC(=O)NC(C)(C)C)c2)cc1` [NTP4, reference compound], in assay [1], the “inhibition of U46619-mediated calcium mobilization, TPβ (in words)” value is recorded as “potently inhibited”. Further, in assay [2], the IC50 is 103 ± 11.1 nM. Further, the “effect on the DP1 receptor” value in assay [3] is “like TP20 and NTP4, neither NTP42, NTP43 nor NTP48 exhibited any effect”. Further, the “effect on the IP receptor” value in assay [4] was “like TP20 and NTP4, neither NTP42, NTP43 nor NTP48 exhibited any effect”.
